The record followed here is patent publication US8648201B2, “Aminopyridine derivatives for treating tumors and inflammatory diseases” (MERCK PATENT GmbH, priority 2009, dated 2014).

In experiment [1] the target is T1, PDK1 (Homo sapiens, UniProt O15530).
T1 construct: His6 (N)
T1 sequence (O15530 51-556 limits assumed): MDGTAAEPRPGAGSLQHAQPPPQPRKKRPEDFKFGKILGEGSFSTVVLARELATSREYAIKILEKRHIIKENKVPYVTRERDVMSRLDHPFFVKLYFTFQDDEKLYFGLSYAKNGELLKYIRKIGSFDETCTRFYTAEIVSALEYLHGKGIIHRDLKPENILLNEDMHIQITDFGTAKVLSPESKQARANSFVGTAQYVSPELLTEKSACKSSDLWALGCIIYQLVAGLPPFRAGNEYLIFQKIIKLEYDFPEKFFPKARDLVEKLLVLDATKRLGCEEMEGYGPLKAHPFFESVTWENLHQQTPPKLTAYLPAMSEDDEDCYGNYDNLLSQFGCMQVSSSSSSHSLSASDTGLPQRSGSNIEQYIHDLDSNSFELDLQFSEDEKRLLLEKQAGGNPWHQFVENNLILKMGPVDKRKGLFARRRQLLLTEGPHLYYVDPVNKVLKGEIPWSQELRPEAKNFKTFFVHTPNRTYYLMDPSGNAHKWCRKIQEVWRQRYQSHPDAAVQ
The experiment is described as follows: Test for the inhibition of PDK1 (flashplate, 33P-ATP). It counts as biochemical. Conditions: enzyme. The protocol:
The experimental batches are carried out in a flashplate system with 384 wells/microtitration plate.
In each case, the PDK1 sample His6-PDK1(1-50)(3.4 nM), the PDK1 substrate biotin-bA-bA-[…] (400 nM), 4 μM ATP (with 0.2 μCi of ^33P-ATP/well) and the test substance in 50 μl of conventional experimental solution per well are incubated at 30° C. for 60 min. The test substances are employed in corresponding concentrations (if desired in a dilution series). The control is carried out without test substance. The reaction is stopped using standard methods and washed. The activity of the kinase is measured via the incorporated radioactivity in top count. In order to determine the non-specific kinase reaction (blank value), the experimental batches are carried out in the presence of 100 nM staurosporin.
The radioactivity (decompositions per minute) of the blank value (no use of test substance in the presence of staurosporin) is subtracted from all other radioactivity values. The controls (kinase activity without test substance) are set equal to 100 percent and all other radioactivity values (after subtracting the blank value) are expressed set in relation thereto (for example in % of the control).
IC50 values (50% inhibition) are determined with the aid of statistics programmes, such as, for example, RS1.

Experiment [2] deals with T2, PDK1 (Homo sapiens, UniProt O15530).
T2 construct: endogenous in cells; host or cells: commercially available colon carcinoma, ovary, prostate or breast cell lines (none named)
T2 sequence (O15530 1-556): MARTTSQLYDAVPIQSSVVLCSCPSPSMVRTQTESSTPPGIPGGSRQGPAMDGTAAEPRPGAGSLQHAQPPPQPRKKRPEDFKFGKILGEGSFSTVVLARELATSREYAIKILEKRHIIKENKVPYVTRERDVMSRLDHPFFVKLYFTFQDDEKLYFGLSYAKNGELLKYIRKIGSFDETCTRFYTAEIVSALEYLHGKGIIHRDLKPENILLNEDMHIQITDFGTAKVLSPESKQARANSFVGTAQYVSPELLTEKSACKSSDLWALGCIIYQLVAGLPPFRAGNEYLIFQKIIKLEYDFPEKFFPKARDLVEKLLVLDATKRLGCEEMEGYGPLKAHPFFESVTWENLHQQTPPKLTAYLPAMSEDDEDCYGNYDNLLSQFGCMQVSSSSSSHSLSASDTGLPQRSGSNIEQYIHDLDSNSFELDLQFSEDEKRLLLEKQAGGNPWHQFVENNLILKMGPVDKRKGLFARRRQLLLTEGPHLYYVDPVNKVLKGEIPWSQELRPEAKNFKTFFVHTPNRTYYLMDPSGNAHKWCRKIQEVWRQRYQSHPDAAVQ
The experiment is described as follows: IC50 PDK1 (cell). It is filed as cell-based. The protocol:
The cells are sown in a suitable cell density in microtitre plates (96-well format) and the test substances are added in the form of a concentration series. After four further days of cultivation in serum-containing medium, the tumour cell proliferation/tumour cell vitality can be determined by means of an Alamar Blue test system. A defined number of cells (for example 2000 cells) per culture/well in a volume of 180 μl of culture medium are sown in microtitre plates (96 well cell-culture plates) using a multichannel pipette. The cells are subsequently cultivated in a CO2 incubator (37° C. and 10% CO2). The test substances are dissolved, for example, in DMSO and subsequently employed in corresponding concentration (if desired in a dilution series) in the cell culture medium. The dilution steps can be adapted depending on the efficiency of the active ingredients and the desired spread of the concentrations. Cell culture medium is added to the test substances in corresponding concentrations. The addition of the test substances to the cells can take place on the same day as the sowing of the cells. To this end, in each case 20 μl of substance solution from the predilution plate are added to the cultures/wells. The cells are cultivated for a further 4 days at 37° Celsius and 10% CO2. In each case, 20 μl of Alamar Blue reagent are added per well, and the microtitre plates are incubated, for example, for a further seven hours in a CO2 incubator (at 37° C. and 10% CO2). The plates are measured in a reader with a fluorescence filter at a wavelength of 540 nm. The plates can be shaken gently immediately before the measurement. The absorbance value of the medium control (no cells and test substances used) is subtracted from all other absorbance values. The controls (cells without test substance) are set equal to 100 percent, and all other absorbance values are set in relation thereto (for example in % of control): Calculation: 100*(value with cells and test substance−value of medium control)/(value with cells−value of medium control) IC50 values (50% inhibition) are determined with the aid of statistics programs, such as, for example, RS1.

In a further experiment the target is T3, IRAK-1 (Homo sapiens, UniProt P51617).
T3 construct: His6 (N); Dr.Jaekel Pool B, 232Y08C1.IRK
T3 sequence (P51617 whole entry, species assumed): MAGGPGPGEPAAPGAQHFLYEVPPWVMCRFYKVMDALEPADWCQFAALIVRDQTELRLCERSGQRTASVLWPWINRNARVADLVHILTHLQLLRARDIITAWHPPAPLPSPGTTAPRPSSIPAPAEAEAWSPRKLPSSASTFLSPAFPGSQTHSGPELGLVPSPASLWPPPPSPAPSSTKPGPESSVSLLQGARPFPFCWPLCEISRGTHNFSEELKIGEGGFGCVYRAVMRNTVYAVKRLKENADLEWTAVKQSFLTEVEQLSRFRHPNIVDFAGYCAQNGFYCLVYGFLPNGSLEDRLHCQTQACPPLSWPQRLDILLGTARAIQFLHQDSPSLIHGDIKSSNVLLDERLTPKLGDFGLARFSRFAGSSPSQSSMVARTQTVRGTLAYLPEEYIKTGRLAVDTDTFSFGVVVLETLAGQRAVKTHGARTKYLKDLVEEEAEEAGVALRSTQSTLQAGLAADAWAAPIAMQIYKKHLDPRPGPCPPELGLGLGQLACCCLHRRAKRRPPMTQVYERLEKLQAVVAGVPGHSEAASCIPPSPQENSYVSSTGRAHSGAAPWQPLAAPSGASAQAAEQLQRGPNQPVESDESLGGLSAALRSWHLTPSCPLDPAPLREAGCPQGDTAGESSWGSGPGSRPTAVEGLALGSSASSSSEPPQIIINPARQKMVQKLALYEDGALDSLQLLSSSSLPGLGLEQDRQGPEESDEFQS
The experiment is described as follows: Test for the inhibition of IRAK1 (autophosphorylation, flashplate). It is filed as biochemical. The settings on record: enzyme. The method, then:
(§1) The experimental batches are carried out in a flashplate system with 384 wells/microtitre plate. In each case, in order to investigate the inhibition of the autophosphorylation activity of IRAK1, the IRAK1 sample His6-IRAK1 (5.1 nM), 1 μM ATP (with 0.25 μCi of ^33P-ATP/well) and the test substance in 50 μl of conventional experimental solution per well are incubated at 22° C. for 180 min. The test substances are employed in corresponding concentrations (if desired in a dilution series). The control is carried out without test substance. The reaction is stopped using standard methods and washed. The activity of the kinase is measured via the incorporated radioactivity in top count. In order to determine the non-specific kinase reaction (blank value), the experimental batches are carried out in the presence of 1 μM staurosporin. The radioactivity (decompositions per minute) of the blank value (no use of test substance in the presence of 1 μM staurosporin) is subtracted from all other radioactivity values. The controls (kinase activity without test substance) are set equal to 100 percent and all other radioactivity values (after subtracting the blank value) are expressed set in relation thereto (for example in % of the control). IC50 values (50% inhibition) are determined with the aid of statistics programs, such as, for example, RS1.

Experiment [3] concerns the target T4, IRAK-4 (Homo sapiens, UniProt Q9NWZ3).
T4 construct: His6 (N); Dr.Jaekel
T4 sequence (Q9NWZ3 1-460): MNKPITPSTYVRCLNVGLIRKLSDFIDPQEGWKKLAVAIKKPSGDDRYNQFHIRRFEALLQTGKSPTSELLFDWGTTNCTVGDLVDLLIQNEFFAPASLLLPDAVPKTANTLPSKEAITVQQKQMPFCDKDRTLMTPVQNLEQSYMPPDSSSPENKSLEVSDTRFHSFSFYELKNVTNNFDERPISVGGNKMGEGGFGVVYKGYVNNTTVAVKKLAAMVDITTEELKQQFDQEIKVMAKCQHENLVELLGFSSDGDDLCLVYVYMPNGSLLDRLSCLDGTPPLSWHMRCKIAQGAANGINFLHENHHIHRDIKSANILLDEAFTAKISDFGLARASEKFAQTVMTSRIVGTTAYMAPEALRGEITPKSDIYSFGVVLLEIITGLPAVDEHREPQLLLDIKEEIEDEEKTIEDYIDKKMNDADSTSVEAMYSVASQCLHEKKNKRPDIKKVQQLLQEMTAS
The experiment is described as follows: IC50 IRAK-4 (cell). It counts as cell-based.

Experiment [4] addresses T4, IRAK-4. The experiment is described as follows: Test for the inhibition of IRAK4 (flashplate, 33P-ATP). It is filed as biochemical. Conditions: enzyme. The method, then: as §1, with “case,” for “case, in order to investigate”, “the IRAK4 sample His6-IRAK4 (7.3 nM),” for “the inhibition of”, “the biotinylated substrate peptide STK substrate 1-biotin (Cisbio Bioassays, France) (300” for “the autophosphorylation activity of IRAK1, the IRAK1 sample His6-IRAK1 (5.1”, “nM), 10” for “nM), 1”

By IC50 is commonly meant the concentration at which inhibition is half-maximal. The low end stands for greater potency in that assay, the high end for weaker potency in that assay. For `CC1CC(=O)NN=C1c1ccc2[nH]c(-c3cc(-c4cnn(C(C)C)c4)cnc3N)nc2c1` (stereo not drawn) [Compound A11, 6-{2-[2-Amino-5-(1-isopropyl-1H-pyrazol-4-yl)pyridin-3-yl]-1H-benzimidazol-5-yl}-5-methyl-4,5-dihydro-2H-pyridazin-3-one], the concentration for half-maximal inhibition (IC50) lay in the range of 1 to 100 nM at PDK1 [1] and 100 to 10000 nM against PDK1 [2].

Take `COCCn1cc(-c2cnc(N)c(-c3nc4cc(C5=NNC(=O)CC5C)ccc4[nH]3)c2)cn1` (stereo not drawn) [Compound A12]: the IC50 on PDK1 [1] lay in the range of 1 to 100 nM; on PDK1 [2] it was 100 to 10000 nM.

On to `COCCCn1cc(-c2cnc(N)c(-c3nc4cc(C5=NNC(=O)CC5C)ccc4[nH]3)c2)cn1` (stereo not drawn) [Compound A13, 6-(2-{2-Amino-5-[1-(3-methoxypropyl)-1H-pyrazol-4-yl]-pyridin-3-yl}-1H-benzimidazol-5-yl)-5-methyl-4,5-dihydro-2H-pyridazin-3-one], for which the half-inhibitory concentration (IC50) was 1 to 100 nM on PDK1 [1] and 100 to 10000 nM at PDK1 [2].

Turning to `CC1CC(=O)NN=C1c1ccc2[nH]c(-c3cc(-c4cnn(CCN(C)C)c4)cnc3N)nc2c1` (stereo not drawn) [Compound A15, 6-(2-{2-Amino-5-[1-(2-dimethylaminoethyl)-1H-pyrazol-4-yl]pyridin-3-yl}-1H-benzimidazol-5-yl)-5-methyl-4,5-dihydro-2H-pyridazin-3-one], the IC50 on PDK1 [1] was 1 to 100 nM; on PDK1 [2] it was greater than 10000 nM.

Turning to `CC1CC(=O)NN=C1c1ccc2[nH]c(-c3cc(-c4cnn(C5CCN(C)CC5)c4)cnc3N)nc2c1` (stereo not drawn) [Compound A16], the figures for the 50% inhibitory concentration (IC50) at PDK1 [1] and at PDK1 [2] were 1 to 100 nM and greater than 10000 nM, respectively.

For `CC1CC(=O)NN=C1c1ccc2nc(-c3cc(-c4cnn(CCO)c4)cnc3N)[nH]c2c1` (stereo not drawn) [Compound A29, 6-(2-{2-amino-5-[1-(2-hydroxyethyl)-1H-pyrazol-4-yl]pyridin-3-yl}-3H-benzimidazol-5-yl)-5-methyl-4,5-dihydro-2H-pyridazin-3-one], the concentration for half-maximal inhibition (IC50) was 1 to 100 nM at PDK1 [1] and greater than 10000 nM on PDK1 [2].

Regarding `CCCn1cc(-c2cnc(N)c(-c3nc4ccccc4[nH]3)c2)cn1` [Compound A44], the IC50 at IRAK-1, against IRAK-4 [3] and against IRAK-4 [4] was 100 to 10000 nM throughout.

Take `CC(C)(C)c1ccc2nc(-c3cc(-c4cnn(C5CCNCC5)c4)cnc3N)[nH]c2c1` [Compound A53]: the half-inhibitory concentration (IC50) at PDK1 [1] was 1 to 100 nM; against PDK1 [2] it was 100 to 10000 nM.

`Nc1ncc(-c2cnn(C3CCNCC3)c2)cc1-c1nc2cc(OC(F)(F)F)ccc2[nH]1` [Compound A67]: the figures for the IC50 against PDK1 [1] and against PDK1 [2] were 1 to 100 nM and 100 to 10000 nM, respectively.

Turning to `CN(C)c1ccc2nc(-c3cc(-c4cnn(C)c4)cnc3N)[nH]c2c1` [Compound A68], the figures for the IC50 against PDK1 [1] and on PDK1 [2] were 1 to 100 nM and greater than 10000 nM, respectively.

For the compound `Cn1cc(-c2cnc(N)c(-c3nc4ccc(C(O)c5ccccc5)cc4[nH]3)c2)cn1` (stereo not drawn) [Compound A80], the IC50 is 1 to 100 nM at PDK1 [1] and greater than 10000 nM at PDK1 [2].

For `Cn1cc(-c2cnc(N)c(-c3nc4c(O)cccc4[nH]3)c2)cn1` [Compound A102, 2-[2-Amino-5-(1-methyl-1H-pyrazol-4-yl)pyridin-3-yl]-1H-benzimidazol-4-ol], the concentration for half-maximal inhibition (IC50) against PDK1 [1] is 1 to 100 nM; on PDK1 [2], 100 to 10000 nM.

Regarding `COc1ccc2nc(-c3cc(-c4cnn(C5CCN(C)CC5)c4)cnc3N)[nH]c2c1` [Compound A106, 3-(6-Methoxy-1H-benzimidazol-2-yl)-5-[1-(1-methyl-piperidin-4-yl)-1H-pyrazol-4-yl]pyridin-2-ylamine], the values for the IC50 against PDK1 [1] and against PDK1 [2] were 1 to 100 nM and greater than 10000 nM, respectively.
